Experimental data: patent US4115585A, “Esters of 1-(p-hydroxyphenyl)-2-(1'-methyl-2'-phenoxyethylamino)-1-propanol” (Instituto Luso Farmaco d'Italia S.r.l., priority 1976, dated 1978)

Assays:
in vivo = conditions: rat, po
Description: According to the invention, esters I may be prepared by the esterification of the phenolic function of 1-(p-hydroxyphenyl)-2-(1'-methyl-2'-phenoxyethylamino)-1-propanol (II) with reactive derivatives like chlorides, bromides, and anhydrides of aliphatic acids of general formula III: [drawing 3] in which R1, R2, and R3 are as reported above. The esterification may be performed in an apolar solvent at reflux (such as benzene, toluene, or an analogous aromatic hydrocarbon) in the presence of an organic base like triethylamine, or in pyridine at room temperature.

[1] = Hypotensive activity (variation in pressure 1 to 2 days after insertion of a catheter in the abdominal artery, technique of Weeks and Jones); type: in vivo

Row | SMILES | LD50 (in vivo) | Hypotensive Activity Recovery to 50% ([1]; dose 20 mg/Kg os) | Hypotensive Activity Recovery to 75% ([1]; dose 20 mg/Kg os) | Hypotensive Activity maximal pressure decrease ([1]; dose 20 mg/Kg os) | Hypotensive Activity Recovery to 50% ([1]; dose 40 mg/Kg os) | Hypotensive Activity Recovery to 75% ([1]; dose 40 mg/Kg os) | Hypotensive Activity maximal pressure decrease ([1]; dose 40 mg/Kg os) | Hypotensive Activity Recovery to 50% ([1]; dose 80 mg/Kg os) | Hypotensive Activity Recovery to 75% ([1]; dose 80 mg/Kg os) | Hypotensive Activity maximal pressure decrease ([1]; dose 80 mg/Kg os) | Hypotensive Activity Recovery to 50% ([1]; dose 5 mg/Kg os) | Hypotensive Activity Recovery to 75% ([1]; dose 5 mg/Kg os) | Hypotensive Activity maximal pressure decrease ([1]; dose 5 mg/Kg os) | Hypotensive Activity Recovery to 50% ([1]; dose 10 mg/Kg os) | Hypotensive Activity Recovery to 75% ([1]; dose 10 mg/Kg os) | Hypotensive Activity maximal pressure decrease ([1]; dose 10 mg/Kg os)
1 | CC(COc1ccccc1)NC(C)C(O)c1ccc(OC(=O)C(C)(C)C)cc1 (stereo not drawn) [LR 693, 1-(p-α,α-dimethylpropionyloxyphenyl)-2-(1'-methyl-2'-phenoxyethylamino)-1-propanol] | > 5000 mg/kg | 29.0 ± 1.0 min | 60.0 ± 20.0 min | 9.0±1.0 mm Hg | 115.7 ± 21.9 min | 311.7 ± 34.2 min | 21.3±4.1 mm Hg | 180.2 ± 40.7 min | 384.8 ± 71.0 min | 18.8±8.0 mm Hg |  |  |  |  |  | 
2 | CC(COc1ccccc1)NC(C)C(O)c1ccc(O)cc1 (stereo not shown) [Isoxysuprine, 1-(p-hydroxyphenyl)-2-(1'-methyl-2'-phenoxyethylamino)-1-propanol] |  | 46.4 ± 13.8 min | 110.4 ± 29.4 min | 28.7±4.9 mm Hg | 34.0 ± 12.8 min | 197.5 ± 59.5 min | 21.8±2.1 mm Hg |  |  |  | 8.0 ± 3.0 min | 18.5 ± 6.5 min | 24.5±11.5 mm Hg | 79.8 ± 32.6 min | 105.0 ± 42.9 min | 25.3±3.6 mm Hg
